# Measurements as given in ChEMBL document CHEMBL1201862, “PubChem BioAssay data set” (2004).
# Activity calls are given as the source filed them.
# Legend:
# [1] = biological target: T1, Ubiquitin-conjugating enzyme E2 N (Homo sapiens, UniProt P61088); type: functional;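 note: Dose-response confirmation in a TR-FRET assay detecting UBC13-driven polyubiquitin chain formation, inhibition measured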
# T1 sequence (P61088 whole entry): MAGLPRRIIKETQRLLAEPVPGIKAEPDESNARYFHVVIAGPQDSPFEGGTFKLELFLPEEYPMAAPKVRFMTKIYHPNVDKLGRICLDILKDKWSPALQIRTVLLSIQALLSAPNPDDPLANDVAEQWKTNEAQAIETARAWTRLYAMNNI
# Cytochrome P450 3A4 = Cytochrome P450 3A4 (Homo sapiens, UniProt P08684); conditions: Potency;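 note: confirmatory qHTS run detecting inhibitors and substrates of CYP3A4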
# Chain of Cytochrome P450 3A4 (P08684 whole entry): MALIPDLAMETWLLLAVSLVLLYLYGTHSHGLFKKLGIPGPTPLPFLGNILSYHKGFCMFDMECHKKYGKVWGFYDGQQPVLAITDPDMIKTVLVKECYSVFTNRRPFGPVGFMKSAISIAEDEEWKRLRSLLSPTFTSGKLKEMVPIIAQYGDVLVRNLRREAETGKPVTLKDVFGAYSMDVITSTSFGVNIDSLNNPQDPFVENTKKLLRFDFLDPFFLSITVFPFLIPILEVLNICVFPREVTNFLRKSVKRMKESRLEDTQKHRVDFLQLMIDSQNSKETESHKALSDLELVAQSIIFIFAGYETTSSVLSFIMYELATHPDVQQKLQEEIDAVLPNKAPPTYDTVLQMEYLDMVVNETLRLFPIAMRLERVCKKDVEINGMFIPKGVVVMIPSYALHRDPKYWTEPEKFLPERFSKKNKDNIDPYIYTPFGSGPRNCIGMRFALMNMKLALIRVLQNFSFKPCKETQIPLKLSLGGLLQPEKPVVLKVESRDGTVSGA
# Fatty acid synthase [2] = biological target: T2, Fatty acid synthase (Homo sapiens, UniProt P49327); experiment: inhibition of human FAS-TE enzyme activity – biochemical, endpoint fluorescence intensity, uHTS hits, dose response (AID 624327); type: functional;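 note: fluorescence from hydrolysis of an O-methyl fluorescein acyl ester substrate by the enzyme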
# T2 sequence (P49327 whole entry): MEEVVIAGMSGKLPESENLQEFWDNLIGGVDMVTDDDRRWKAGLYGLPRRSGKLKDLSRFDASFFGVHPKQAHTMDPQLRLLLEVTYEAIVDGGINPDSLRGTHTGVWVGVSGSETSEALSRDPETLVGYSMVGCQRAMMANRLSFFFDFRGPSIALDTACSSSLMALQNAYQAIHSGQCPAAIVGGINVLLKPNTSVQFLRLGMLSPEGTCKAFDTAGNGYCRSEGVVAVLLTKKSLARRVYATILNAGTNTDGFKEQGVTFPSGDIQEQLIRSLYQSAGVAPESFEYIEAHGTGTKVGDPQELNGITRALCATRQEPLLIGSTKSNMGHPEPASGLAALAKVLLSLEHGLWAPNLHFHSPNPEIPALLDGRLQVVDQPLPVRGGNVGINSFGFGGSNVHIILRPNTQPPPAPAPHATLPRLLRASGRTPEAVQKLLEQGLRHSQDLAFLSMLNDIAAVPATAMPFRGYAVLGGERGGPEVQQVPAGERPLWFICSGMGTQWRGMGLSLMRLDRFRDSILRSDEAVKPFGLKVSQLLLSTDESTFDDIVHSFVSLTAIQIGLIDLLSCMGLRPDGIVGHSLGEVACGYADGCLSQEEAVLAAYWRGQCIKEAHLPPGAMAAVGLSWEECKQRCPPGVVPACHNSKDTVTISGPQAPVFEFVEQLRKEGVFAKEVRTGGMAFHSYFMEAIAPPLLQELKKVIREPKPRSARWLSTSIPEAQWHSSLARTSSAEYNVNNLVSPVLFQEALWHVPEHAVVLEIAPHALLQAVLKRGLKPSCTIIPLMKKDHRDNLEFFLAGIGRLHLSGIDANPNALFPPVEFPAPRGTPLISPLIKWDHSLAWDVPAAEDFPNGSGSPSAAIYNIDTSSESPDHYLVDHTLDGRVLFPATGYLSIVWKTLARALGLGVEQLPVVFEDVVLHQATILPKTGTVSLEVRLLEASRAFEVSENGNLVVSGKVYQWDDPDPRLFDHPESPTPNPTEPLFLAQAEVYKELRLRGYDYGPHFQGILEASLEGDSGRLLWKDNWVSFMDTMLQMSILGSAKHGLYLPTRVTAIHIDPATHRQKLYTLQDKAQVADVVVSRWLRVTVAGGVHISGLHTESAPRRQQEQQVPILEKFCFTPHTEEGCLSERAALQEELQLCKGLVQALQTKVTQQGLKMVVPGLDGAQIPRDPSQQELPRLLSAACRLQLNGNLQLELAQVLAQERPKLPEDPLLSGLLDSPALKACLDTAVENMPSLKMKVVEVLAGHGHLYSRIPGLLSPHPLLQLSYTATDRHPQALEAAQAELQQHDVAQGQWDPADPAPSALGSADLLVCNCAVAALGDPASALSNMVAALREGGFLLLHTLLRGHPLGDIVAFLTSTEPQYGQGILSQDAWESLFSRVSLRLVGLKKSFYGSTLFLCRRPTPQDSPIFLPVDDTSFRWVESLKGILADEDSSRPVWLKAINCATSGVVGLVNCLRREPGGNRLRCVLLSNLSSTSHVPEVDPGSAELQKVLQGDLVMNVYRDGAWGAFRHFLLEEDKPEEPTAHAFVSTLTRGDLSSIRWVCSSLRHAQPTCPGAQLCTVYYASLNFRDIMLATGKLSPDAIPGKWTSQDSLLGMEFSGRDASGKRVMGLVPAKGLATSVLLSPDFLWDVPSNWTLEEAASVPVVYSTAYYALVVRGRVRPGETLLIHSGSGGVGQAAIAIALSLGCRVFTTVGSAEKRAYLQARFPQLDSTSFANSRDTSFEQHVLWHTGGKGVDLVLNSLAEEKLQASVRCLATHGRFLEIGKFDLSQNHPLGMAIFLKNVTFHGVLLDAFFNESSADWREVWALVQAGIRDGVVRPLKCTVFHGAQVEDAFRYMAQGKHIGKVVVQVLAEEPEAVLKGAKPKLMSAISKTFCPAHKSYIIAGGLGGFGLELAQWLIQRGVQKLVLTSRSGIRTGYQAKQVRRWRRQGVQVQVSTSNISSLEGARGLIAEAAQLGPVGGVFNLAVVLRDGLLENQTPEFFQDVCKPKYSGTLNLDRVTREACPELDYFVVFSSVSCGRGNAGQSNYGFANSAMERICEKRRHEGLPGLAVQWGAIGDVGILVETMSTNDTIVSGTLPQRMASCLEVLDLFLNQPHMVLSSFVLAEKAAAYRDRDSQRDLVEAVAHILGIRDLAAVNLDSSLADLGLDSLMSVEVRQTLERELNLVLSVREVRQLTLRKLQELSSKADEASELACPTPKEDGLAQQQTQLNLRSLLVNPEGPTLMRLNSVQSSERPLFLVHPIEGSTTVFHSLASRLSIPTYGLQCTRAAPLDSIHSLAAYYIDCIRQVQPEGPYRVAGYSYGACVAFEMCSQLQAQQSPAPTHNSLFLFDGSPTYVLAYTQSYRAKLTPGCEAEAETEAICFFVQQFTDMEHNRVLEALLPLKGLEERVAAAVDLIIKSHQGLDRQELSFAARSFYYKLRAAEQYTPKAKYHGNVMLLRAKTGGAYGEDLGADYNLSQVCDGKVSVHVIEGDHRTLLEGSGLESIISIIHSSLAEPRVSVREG
# Fatty acid synthase [3] = biological target: T2, Fatty acid synthase; experiment: inhibition of human FAS-TE enzyme activity – biochemical, kinetic fluorescence intensity, dose response (AID 624326); type: functional;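 note: rate of fluorescence rise from hydrolysis of a fluorogenic O-methyl fluorescein ester substrate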
# Vero = experiment: cells; type: functional; conditions: Chlorocebus sabaeus
# [4] = biological target: Induced myeloid leukemia cell differentiation protein Mcl-1 (Homo sapiens, UniProt Q07820); type: functional
# Chain of Induced myeloid leukemia cell differentiation protein Mcl-1 (Q07820 whole entry, the tested form may be a part): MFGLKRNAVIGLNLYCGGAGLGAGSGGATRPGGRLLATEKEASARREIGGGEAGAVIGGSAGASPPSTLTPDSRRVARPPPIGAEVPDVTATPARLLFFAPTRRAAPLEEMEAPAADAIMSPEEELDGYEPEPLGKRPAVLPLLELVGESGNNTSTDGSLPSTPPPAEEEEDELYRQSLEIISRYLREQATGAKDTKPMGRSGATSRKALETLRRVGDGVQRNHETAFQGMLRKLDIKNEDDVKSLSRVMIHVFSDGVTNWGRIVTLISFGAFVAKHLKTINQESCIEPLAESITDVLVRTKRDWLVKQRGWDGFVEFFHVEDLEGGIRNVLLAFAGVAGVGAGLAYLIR
# [5] = biological target: T3, Carboxy-terminal domain RNA polymerase II polypeptide A small phosphatase 1 (Homo sapiens, UniProt Q9GZU7); experiment: CTDSP1 inhibitors, concentration-response, biochemical, absorbance readout, ultra-high-throughput screen actives (AID 540297); type: functional
# T3 sequence (Q9GZU7 whole entry): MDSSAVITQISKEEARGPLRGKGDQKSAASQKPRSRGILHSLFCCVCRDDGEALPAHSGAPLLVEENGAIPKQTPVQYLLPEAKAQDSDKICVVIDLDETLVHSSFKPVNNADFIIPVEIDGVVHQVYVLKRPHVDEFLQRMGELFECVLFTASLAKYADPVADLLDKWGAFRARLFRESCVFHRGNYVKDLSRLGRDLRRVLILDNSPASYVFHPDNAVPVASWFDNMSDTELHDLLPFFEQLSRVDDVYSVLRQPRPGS
# [6] = biological target: T4, Short transient receptor potential channel 4 (Mus musculus, UniProt Q9QUQ5); experiment: calcium entry via TRPC4 opening agents – cell-based, HEK293 TRPC4/mu-opioid, Fluo-4 calcium, dose response (AID 434937); type: functional
# T4 sequence (Q9QUQ5 whole entry): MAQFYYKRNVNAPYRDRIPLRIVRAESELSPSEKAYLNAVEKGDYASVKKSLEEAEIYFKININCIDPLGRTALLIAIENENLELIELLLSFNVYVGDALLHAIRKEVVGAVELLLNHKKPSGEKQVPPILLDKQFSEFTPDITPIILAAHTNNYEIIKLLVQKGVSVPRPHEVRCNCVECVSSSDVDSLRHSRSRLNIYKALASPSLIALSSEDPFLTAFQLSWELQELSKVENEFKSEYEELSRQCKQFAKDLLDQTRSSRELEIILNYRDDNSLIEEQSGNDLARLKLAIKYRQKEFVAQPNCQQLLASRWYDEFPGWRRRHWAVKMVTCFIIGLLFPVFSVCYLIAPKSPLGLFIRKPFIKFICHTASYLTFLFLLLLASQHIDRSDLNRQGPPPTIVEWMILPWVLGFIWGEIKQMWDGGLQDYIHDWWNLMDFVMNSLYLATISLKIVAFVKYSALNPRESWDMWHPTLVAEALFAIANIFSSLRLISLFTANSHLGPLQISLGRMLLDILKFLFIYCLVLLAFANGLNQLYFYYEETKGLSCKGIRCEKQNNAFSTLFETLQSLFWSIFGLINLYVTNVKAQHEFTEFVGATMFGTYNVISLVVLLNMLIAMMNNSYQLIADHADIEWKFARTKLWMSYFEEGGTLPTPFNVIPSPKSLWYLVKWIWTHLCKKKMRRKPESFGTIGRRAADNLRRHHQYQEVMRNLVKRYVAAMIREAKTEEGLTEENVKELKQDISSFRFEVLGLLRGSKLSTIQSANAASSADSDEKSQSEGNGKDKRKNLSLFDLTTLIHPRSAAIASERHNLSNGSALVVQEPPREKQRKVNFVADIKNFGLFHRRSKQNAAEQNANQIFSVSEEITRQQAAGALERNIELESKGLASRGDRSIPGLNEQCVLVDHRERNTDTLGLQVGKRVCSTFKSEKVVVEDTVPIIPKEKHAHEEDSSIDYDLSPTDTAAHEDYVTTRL
# [7] = viability of PTEN-deleted HCT116 cells – cell-based, HCT116 PTEN knockout, dose response (AID 1047); type: functional;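 note: HCT116 colon tumor cells with PTEN knocked out; cells exposed to compound for 60 hours before readout; potency for loss of cell viability measured by luminescence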
# [8] = viability of HCT116 lacking mutant beta-catenin – cell-based, human colon tumor, dose response (AID 1045); type: functional;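 note: HCT116 colon tumor cells with beta catenin knocked out; cells exposed to compound for 60 hours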
# [9] = biological target: T5, RNA-binding protein pos-1 (Caenorhabditis elegans, UniProt G5EF15); experiment: disruptors of C. elegans POS-1 RNA interaction – biochemical, fluorescence polarization, dose response (AID 1964);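 note: purified POS-1 fused to maltose binding protein made in E. coli; potency of compounds blocking POS-1 binding to fluorescent RNA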
# T5 sequence (G5EF15 whole entry): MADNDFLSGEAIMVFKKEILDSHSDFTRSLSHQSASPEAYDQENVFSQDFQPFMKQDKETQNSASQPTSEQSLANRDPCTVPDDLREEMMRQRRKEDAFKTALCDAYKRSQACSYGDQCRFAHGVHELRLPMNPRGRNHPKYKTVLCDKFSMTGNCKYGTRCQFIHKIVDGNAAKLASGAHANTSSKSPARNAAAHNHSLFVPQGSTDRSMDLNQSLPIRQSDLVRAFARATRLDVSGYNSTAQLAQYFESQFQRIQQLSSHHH
# [10] = biological target: T6, Zinc finger protein mex-5 (Caenorhabditis elegans, UniProt Q9XUB2); experiment: potency of MEX-5 RNA-binding blockers – biochemical, C. elegans, fluorescence polarization, dose response (AID 1960)
# T6 sequence (Q9XUB2 whole entry): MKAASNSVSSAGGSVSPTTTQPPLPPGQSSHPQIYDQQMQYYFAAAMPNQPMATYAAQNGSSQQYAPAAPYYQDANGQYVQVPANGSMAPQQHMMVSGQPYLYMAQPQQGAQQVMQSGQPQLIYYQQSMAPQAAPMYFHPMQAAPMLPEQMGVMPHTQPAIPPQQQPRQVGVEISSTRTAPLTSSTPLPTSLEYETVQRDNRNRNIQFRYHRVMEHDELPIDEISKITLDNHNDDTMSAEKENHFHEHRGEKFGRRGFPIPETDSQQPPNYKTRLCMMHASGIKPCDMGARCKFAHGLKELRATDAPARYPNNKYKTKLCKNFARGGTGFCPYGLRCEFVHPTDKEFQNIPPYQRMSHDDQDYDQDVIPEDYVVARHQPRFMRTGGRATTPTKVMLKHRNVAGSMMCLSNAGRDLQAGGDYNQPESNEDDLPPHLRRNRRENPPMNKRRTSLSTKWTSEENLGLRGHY
# Cytochrome P450 2C19 = Cytochrome P450 2C19 (Homo sapiens, UniProt P33261); experiment: Cytochrome panel assay with activity outcomes. Panel member name: p450-cyp2c19 Compounds with AC50 equal or less than 10 uM are considered active; type: functional; conditions: read-out: AC50
# Chain of Cytochrome P450 2C19 (P33261 whole entry): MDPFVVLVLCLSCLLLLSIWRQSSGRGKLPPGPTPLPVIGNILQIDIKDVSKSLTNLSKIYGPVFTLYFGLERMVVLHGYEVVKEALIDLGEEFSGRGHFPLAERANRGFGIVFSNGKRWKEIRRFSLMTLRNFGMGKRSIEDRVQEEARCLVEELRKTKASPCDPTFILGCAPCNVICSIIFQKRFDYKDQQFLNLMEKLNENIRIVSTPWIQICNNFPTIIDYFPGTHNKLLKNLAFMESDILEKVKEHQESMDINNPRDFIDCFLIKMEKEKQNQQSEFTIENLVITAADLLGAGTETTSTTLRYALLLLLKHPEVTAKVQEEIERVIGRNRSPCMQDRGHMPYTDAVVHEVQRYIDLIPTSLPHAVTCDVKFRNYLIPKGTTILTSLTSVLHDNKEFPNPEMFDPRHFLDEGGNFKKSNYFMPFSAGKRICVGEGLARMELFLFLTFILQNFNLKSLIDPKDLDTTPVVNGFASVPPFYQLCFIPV
# Cytochrome P450 2C9 = Cytochrome P450 2C9 (Homo sapiens, UniProt P11712)
# Chain of Cytochrome P450 2C9 (P11712 whole entry): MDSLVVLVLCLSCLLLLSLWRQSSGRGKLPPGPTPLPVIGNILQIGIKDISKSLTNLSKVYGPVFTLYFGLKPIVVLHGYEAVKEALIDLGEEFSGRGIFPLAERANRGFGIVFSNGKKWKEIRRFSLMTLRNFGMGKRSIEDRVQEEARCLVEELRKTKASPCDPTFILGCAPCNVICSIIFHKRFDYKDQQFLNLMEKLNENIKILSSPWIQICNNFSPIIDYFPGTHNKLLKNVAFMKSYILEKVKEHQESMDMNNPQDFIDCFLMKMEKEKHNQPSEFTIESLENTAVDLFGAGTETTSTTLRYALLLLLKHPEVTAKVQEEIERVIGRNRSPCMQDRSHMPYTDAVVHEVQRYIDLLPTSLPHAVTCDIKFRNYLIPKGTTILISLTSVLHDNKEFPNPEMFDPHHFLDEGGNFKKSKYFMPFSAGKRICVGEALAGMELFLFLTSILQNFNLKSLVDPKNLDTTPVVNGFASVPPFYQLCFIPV
# [11] = Trypanosoma cruzi growth suppression in host cells – NIH3T3 host cells, beta-gal luminescence, confirmation (AID 2044); type: functional, cell-based;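 note: intracellular parasites grown in NIH/3T3 mouse fibroblasts as host cells; luminescent beta-galactosidase reporter signal from transgenic T. cruzi replicating inside host cells; inhibitors lower the luminescence signal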
# [12] = NIH3T3 cell viability loss – ATP luminescence, mouse fibroblasts, counter-screen, dose response (AID 2010); type: functional, cell-based;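 note: cells exposed to compound for about 90 hours before reading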
structure (smiles),measurement,setting,value
COc1ccc(C)cc1NC(=O)c1cc(S(=O)(=O)N2CCCCC2)ccc1N1CCOCC1,IC50,[1],> 20 µM (inactive)
Clc1ccc(C2[C@H]3CN(Cc4ccc(-c5ccccc5)cc4)[C@H](c4ccccc4)C34CC2(c2cccnc2)C4)cn1 (stereo partly specified),AC50,Cytochrome P450 3A4,15.8 µM (inconclusive)
CC(C)c1ccc(CCNC(=O)c2ccc([N+](=O)[O-])cc2)cc1,IC50,Fatty acid synthase [2],1.51 µM (active)
same,IC50,Fatty acid synthase [3],1.71 µM (active)
Cc1cc(O)c(C(=O)/C=C/c2cccc([N+](=O)[O-])c2)c(=O)o1,CC50,Vero,22.6 µM (active)
O=C(CCCc1ccccc1)Nc1cccc([N+](=O)[O-])c1,IC50,Fatty acid synthase [2],7.58 µM (active)
same,IC50,Fatty acid synthase [3],3.7 µM (active)
COCCCNC(=O)/C(C#N)=C/c1ccc(OCC(=O)O)c(OC)c1,IC50,[4],4.75 µM (active)
same,IC50,[5],2.19 µM (active)
CCCn1c(-c2ccc(F)cc2)nc2c(N3CCN(C)CC3)nc(C)nc21,AC50,Cytochrome P450 3A4,12.6 µM (inconclusive)
N#Cc1c(-c2ccccc2)c(-c2ccccc2)nn(CC(=O)NNC(=O)Nc2ccc(Cl)cc2)c1=O,IC50,Fatty acid synthase [2],3.55 µM (active)
same,IC50,Fatty acid synthase [3],3.01 µM (active)
COc1ccc(C(=O)C2CCCN(C3CSCCSC3)C2)cc1OC (stereo unspecified),EC50,[6],0.944 µM (active)
CN(C)c1ccc(/C=C/C(=O)c2ccccc2)cc1[N+](=O)[O-],EC50,[7],8.26 µM (active)
same,EC50,[8],7.13 µM (active)
CC(C)c1n[nH]c2c1C(C1C=CCCC1)C(C#N)=C(N)O2 (stereo unspecified),CC50,Vero,21.9 µM (active)
NCCCCc1ccc2ccc3cccc4ccc1c2c34,IC50,[1],> 20 µM (inactive)
same,CC50,Vero,22.6 µM (active)
Nc1c(C(=O)NCc2ccco2)c2nc3ccccc3nc2n1Cc1ccc(F)cc1,EC50,[7],168 µM (active)
same,EC50,[8],348 µM (active)
CN1C[C@@H]2C(c3ccccc3)C3(c4ccc(C#N)cc4)CC2(C3)[C@H]1c1ccccc1 (stereo partly specified),AC50,Cytochrome P450 3A4,25.1 µM (inconclusive)
NC(=S)N=Nc1c(O)[nH]c2ccccc12,IC50,[1],> 20 µM (inactive)
COc1ccc(CCCc2nc3ccccc3[nH]2)cc1,EC50,[9],> 300 µM (not active)
same,EC50,[10],> 300 µM (not active)
Cc1c2ccccc2nc2c(F)c(NC(C)C)c(F)c(F)c12,EC50,[9],> 300 µM (not active)
same,EC50,[10],> 300 µM (not active)
O=[N+]([O-])c1ccc(N2CCNCC2)cc1NC1CC1,EC50,[6],0.168 µM (active)
same,AC50,Cytochrome P450 2C19,25.1 µM (inconclusive)
same,AC50,Cytochrome P450 2C9,15.8 µM (inconclusive)
Cc1ccccc1C(=O)Nc1nc(-c2cccnc2)cs1,IC50,[4],> 54 µM (active)
c1ccc2c(c1)ccc1ncccc12,AC50,Cytochrome P450 3A4,31.6 µM (inconclusive)
CC1=C(/C=C/C(C)=C/C=C/C(C)=C\C=O)C(C)(C)CCC1,AC50,Cytochrome P450 3A4,31.6 µM (inconclusive)
CCCN(CCC)CCNC(=O)CCC(=O)Nc1ccc2nc(N3CCOCC3)cc(C)c2c1,EC50,[6],0.473 µM (active)
CN(CCc1ccccn1)C(=O)CC1C(=O)NCCN1Cc1ccccc1C(F)(F)F (stereo unspecified),EC50,[6],5.96 µM (active)
COc1ccc([C@@H]2[C@@H]3C(=O)N(C(C)(C)C)C(=O)[C@@H]3[C@]3(Cc4ccc(Cl)cc4)C(=O)N(c4ccc(Br)cc4)C(=O)N23)cc1,IC50,Fatty acid synthase [2],11.5 µM (active)
same,IC50,Fatty acid synthase [3],11.2 µM (active)
COc1ccc(C[C@H]2CN3C(=NC[C@@H]3Cc3ccc(O)cc3)N2CCNC(=O)c2ccc(C)c(Br)c2)cc1,IC50,[1],> 20 µM (inactive)
CCN(CC)CCSc1nc2cc(OC)ccc2[nH]1,EC50,[6],0.668 µM (active)
O=C(Nc1ccn(CCCNCc2cccc3ccccc23)c(=O)n1)OCc1ccccc1,CC50,Vero,> 25 µM (active)
O=C(C=Cc1ccccc1)c1cccs1,CC50,Vero,> 25 µM (active)
CC(=O)N1N=C(c2ccc(Br)cc2)CC1c1cccc([N+](=O)[O-])c1 (stereo unspecified),IC50,Fatty acid synthase [2],7.1 µM (active)
same,IC50,Fatty acid synthase [3],5.14 µM (active)
COc1cc(/C=N/NC(=O)c2sc(N)c(C#N)c2C)ccc1O,IC50,[1],> 20 µM (inactive)
C=CCn1c(/N=C/c2ccc(N(C)C)cc2)nc2ccccc21,EC50,[6],6.68 µM (active)
CCCCNC(=S)N(C)/N=C/c1ccc(OCC(=O)Nc2c(C)cc(C)cc2C)c(OC)c1,EC50,[7],66.4 µM (active)
same,EC50,[8],95.1 µM (active)
CCCOc1ccc(/C=N/NC(=O)CSCc2ccc([N+](=O)[O-])cc2)cc1OCC,IC50,[1],20 µM (active)
CCOC(=O)c1c(NC(=O)N/N=C/c2ccc(O)c(OC)c2)sc(C(C)=O)c1C,IC50,[4],1.17 µM (active)
N=c1n(CCN2CCCCC2)c2ccccc2n1CC(O)c1ccc(Cl)c(Cl)c1 (stereo unspecified),EC50,[11],2.08 µM (active)
same,EC50,[7],4.29 µM (active)
same,EC50,[12],> 60 µM (not active)
same,EC50,[8],4.25 µM (active)
CCOC(=O)c1c(C)cc(O)c(C=O)c1O [ETHYL HEMATOMMATE],AC50,Cytochrome P450 3A4,39.8 µM (inconclusive)
C/C=C/c1ccc2c(c1)OCO2 [ISOSAFROLE],AC50,Cytochrome P450 3A4,25.1 µM (inconclusive)
COC(=O)[C@@H]1[C@H]2C[C@H]3c4[nH]c5ccccc5c4CCN3C[C@@H]2CC[C@@H]1O [YOHIMBINE],EC50,[9],> 300 µM (not active)
same,EC50,[10],103 µM (active)
